In PubChem BioAssay AID1996:
In brackets after ≈: the same amount, converted by molar mass.

details: buffer; pH 7.4; 200.0 µM

**Q.** With `N#C/C(N)=C(/C#N)N=Cc1cccc(Cl)c1` as the molecule, how does the solubility kinetic read?
**A.** The solubility kinetic was 4 µg/mL (≈ 17.3 µM).

**Q.** With `Nc1cc(=O)[nH]c(SCc2ccc(Cl)cc2Cl)n1` as the molecule, how does the solubility kinetic read?
**A.** The solubility kinetic was 1 µg/mL (≈ 3.31 µM).

**Q.** For `O=C(NCCNS(=O)(=O)c1ccccc1)c1ccc([N+](=O)[O-])cc1`, which solubility kinetic is on record?
**A.** The solubility kinetic was 51.1 µg/mL (≈ 146 µM).

**Q.** Which solubility kinetic does the source give for `COc1ccc2cc(C(=O)NCC3CCCO3)[nH]c2c1` (configuration not stated) here?
**A.** Its solubility kinetic is over 41.1 µg/mL.

**Q.** For `Cc1ccc(S(=O)(=O)[O-])cc1.Cn1cc[n+](C)c1COc1ccc(C=O)cc1`, which solubility kinetic is on record?
**A.** Its solubility kinetic is over 60.4 µg/mL.

**Q.** With `O=C(O)Cc1csc(-c2ccc(F)cc2)n1` as the molecule, how does the solubility kinetic read?
**A.** The solubility kinetic was 32.2 µg/mL (≈ 136 µM).

**Q.** With `CCOC(=O)c1csc(NC(=O)c2cc3ccccc3o2)n1` as the molecule, how does the solubility kinetic read?
**A.** The solubility kinetic was 0.8 µg/mL (≈ 2.53 µM).

**Q.** With `Cc1nc(N2CCN(C(=O)c3ccco3)CC2)[nH]c(=O)c1C` as the molecule, how does the solubility kinetic read?
**A.** The solubility kinetic was over 45.3 µg/mL.

**Q.** With `COc1ccc(NC(=O)N[C@@H](CCSC)C(=O)O)cc1OC` as the molecule, how does the solubility kinetic read?
**A.** Its solubility kinetic is over 49.3 µg/mL.

**Q.** With `O=C(Nc1ccc(Cl)cc1)C1CCCC1` as the molecule, how does the solubility kinetic read?
**A.** Its solubility kinetic is 15.8 µg/mL (≈ 70.6 µM).

**Q.** For `CC(C)(C)c1ccc(C(=S)N2CCN(c3ccccc3)CC2)cc1`, which solubility kinetic is on record?
**A.** The solubility kinetic was under 0.4 µg/mL.

**Q.** For `CS(=O)(=O)c1ccccc1C(=O)Nc1ccc2sccc2c1`, which solubility kinetic is on record?
**A.** The solubility kinetic was 33.8 µg/mL (≈ 102 µM).

**Q.** With `CCOc1ccc(-c2nc[nH]c2[N+](=O)[O-])cc1` as the molecule, how does the solubility kinetic read?
**A.** Its solubility kinetic is 1.7 µg/mL (≈ 7.29 µM).

**Q.** With `COc1ccc(CSCC(=O)NCCC(C)C)cc1` as the molecule, how does the solubility kinetic read?
**A.** Its solubility kinetic is over 42.2 µg/mL.

**Q.** For `COc1ccc(-c2c(C(F)(F)F)nn(C)c2NC(=O)c2ccco2)cc1`, which solubility kinetic is on record?
**A.** The solubility kinetic was over 54.8 µg/mL.

**Q.** For `COc1cccc2cc(-c3ccnc(N)n3)oc12`, which solubility kinetic is on record?
**A.** The solubility kinetic was 2.6 µg/mL (≈ 10.8 µM).

**Q.** With `Cc1cnc(C(=O)OCC(=O)Nc2cccc3ccccc23)cn1` as the molecule, how does the solubility kinetic read?
**A.** The solubility kinetic was over 48.2 µg/mL.

**Q.** With `C/C=C/C(=O)Nc1ccc(N2CCN(c3ccc(C(F)(F)F)cn3)CC2)nc1` as the molecule, how does the solubility kinetic read?
**A.** The solubility kinetic was under 0.2 µg/mL.

**Q.** For `CCc1cccc(NC(=O)c2ccc3c(=O)n4c(nc3c2)CCCCC4)c1`, which solubility kinetic is on record?
**A.** Its solubility kinetic is 9.2 µg/mL (≈ 25.5 µM).

**Q.** Which solubility kinetic does the source give for `C=CCn1c(SCC(=O)N(C)C)nc2sc3c(c2c1=O)CCC3` here?
**A.** The solubility kinetic was 3.4 µg/mL (≈ 9.73 µM).

**Q.** For `CCOc1ccc(N2C(=O)CC(NCC3CCCO3)C2=O)cc1` (configuration not stated), which solubility kinetic is on record?
**A.** The solubility kinetic was over 47.8 µg/mL.

**Q.** For `COc1ccc2ccccc2c1C1NC(=O)NC(C)=C1[N+](=O)[O-]` (configuration not stated), which solubility kinetic is on record?
**A.** Its solubility kinetic is 2.1 µg/mL (≈ 6.7 µM).

**Q.** For `O=C(Nc1ccc(Cl)cc1)/C(=C1\CCCN1)[N+](=O)[O-]`, which solubility kinetic is on record?
**A.** The solubility kinetic was 1 µg/mL (≈ 3.55 µM).

**Q.** Which solubility kinetic does the source give for `Cc1c(C(=O)NC2=NCCS2)cccc1[N+](=O)[O-]` here?
**A.** Its solubility kinetic is 37.5 µg/mL (≈ 141 µM).

**Q.** Which solubility kinetic does the source give for `CN(C(=S)Nc1ccc(SC(F)F)cc1)c1ccc(O)cc1` here?
**A.** The solubility kinetic was over 51.1 µg/mL.

**Q.** Which solubility kinetic does the source give for `CCOc1cc(C(N)=O)cc(Br)c1OCc1ccccc1` here?
**A.** Its solubility kinetic is 12.8 µg/mL (≈ 36.5 µM).

**Q.** Which solubility kinetic does the source give for `O=c1[nH][nH]c2ccccc2c1=O` here?
**A.** Its solubility kinetic is over 24.3 µg/mL.

**Q.** For `Cc1c(C)n(-c2ccccc2)c2ncnc(NCCN(C)C)c12`, which solubility kinetic is on record?
**A.** Its solubility kinetic is over 46.4 µg/mL.

**Q.** For `Cc1csc(NC(=O)c2ccc(COc3ccccc3)o2)n1`, which solubility kinetic is on record?
**A.** Its solubility kinetic is 3.3 µg/mL (≈ 10.5 µM).

**Q.** With `O=C(c1cccc([N+](=O)[O-])c1)N1CCN(c2ncccn2)CC1` as the molecule, how does the solubility kinetic read?
**A.** The solubility kinetic was over 47 µg/mL.

**Q.** Which solubility kinetic does the source give for `O=C(Nc1cccc(-c2nc3ccccc3o2)c1)c1cccnc1` here?
**A.** The solubility kinetic was 0.3 µg/mL (≈ 0.951 µM).

**Q.** For `O=C(Nc1ccc(F)cc1)Nc1ccc2c(c1)CCC2`, which solubility kinetic is on record?
**A.** Its solubility kinetic is under 0.3 µg/mL.

**Q.** With `CCC(=O)c1cn(CC(=O)Nc2ccccc2)c2ccccc12` as the molecule, how does the solubility kinetic read?
**A.** The solubility kinetic was under 0.3 µg/mL.

**Q.** Which solubility kinetic does the source give for `COc1ccccc1NC(=O)c1ccc2[nH]c(C)c(C)c2c1` here?
**A.** The solubility kinetic was 2.1 µg/mL (≈ 7.13 µM).

**Q.** Which solubility kinetic does the source give for `O=C(Cc1ccccc1)NCC(=O)N/N=C/c1cccnc1` here?
**A.** The solubility kinetic was over 44.4 µg/mL.

**Q.** With `CCc1c(C)nc(N2CCN(c3ccc(Cl)cc3)CC2)[nH]c1=O` as the molecule, how does the solubility kinetic read?
**A.** The solubility kinetic was 1.1 µg/mL (≈ 3.3 µM).

**Q.** For `O=C(c1ccc(Cl)cc1)N1CCn2c1nc1ccccc12`, which solubility kinetic is on record?
**A.** Its solubility kinetic is 1.1 µg/mL (≈ 3.69 µM).

**Q.** With `CC(C)N(C(=O)Cn1cc(SCC(N)=O)c2ccccc21)C(C)C` as the molecule, how does the solubility kinetic read?
**A.** Its solubility kinetic is over 52.1 µg/mL.

**Q.** With `CC(=O)c1sc(-c2ccccc2)cc1N` as the molecule, how does the solubility kinetic read?
**A.** The solubility kinetic was 28.4 µg/mL (≈ 131 µM).

**Q.** Which solubility kinetic does the source give for `CCN(CC)S(=O)(=O)c1cccc(-c2cn3cccnc3n2)c1` here?
**A.** Its solubility kinetic is 11.1 µg/mL (≈ 33.6 µM).

**Q.** With `COc1ccc(C(C)=O)cc1COC(=O)[C@H](Cc1ccccc1)NC(=O)c1ccco1` as the molecule, how does the solubility kinetic read?
**A.** Its solubility kinetic is 8 µg/mL (≈ 19 µM).

**Q.** With `CCCc1nc2sc3c(=O)[nH]cnc3c2c2c1CCCC2` as the molecule, how does the solubility kinetic read?
**A.** Its solubility kinetic is 0.4 µg/mL (≈ 1.34 µM).

**Q.** Which solubility kinetic does the source give for `CCCc1ccc(NS(=O)(=O)c2c(C)oc(C)c2C(=O)OC)cc1` here?
**A.** Its solubility kinetic is 7.4 µg/mL (≈ 21.1 µM).

**Q.** For `CSc1nc2c(cc1C#N)C(=O)CC(C)(C)C2`, which solubility kinetic is on record?
**A.** The solubility kinetic was 10.3 µg/mL (≈ 41.8 µM).

**Q.** Which solubility kinetic does the source give for `CN1C(=O)NC(c2ccc([N+](=O)[O-])cc2)C2=C1CC(C)(C)CC2=O` (configuration not stated) here?
**A.** Its solubility kinetic is over 49.4 µg/mL.

**Q.** With `N#Cc1cn(-c2cccc(C(F)(F)F)c2)c(=O)[nH]c1=O` as the molecule, how does the solubility kinetic read?
**A.** The solubility kinetic was over 42.2 µg/mL.

**Q.** For `CN(CC(=O)Nc1ccccc1Cl)C1CCCCC1`, which solubility kinetic is on record?
**A.** The solubility kinetic was 14.7 µg/mL (≈ 52.4 µM).
